Measurements from patent US7399460B2, “Metal complexes derivatized with folate for use in diagnostic and therapeutic applications” (Bracco International B.V., priority 1998, dated 2008).

Key:
[1] = molecular target: T1, folate binding protein on KB cells (Homo sapiens, UniProt P15328); test: Binding of ^153Gd-DO3A-APA-folate (α or γ isomer) or ^3H folate to KB cells at 37° C. in competition with cold native folate; conditions: 10 pmol labelled compound, 0-900 pmol cold native folate, 30 min, FIG. 1
T1 construct: host or cells: KB cells
T1 sequence (P15328 25-234): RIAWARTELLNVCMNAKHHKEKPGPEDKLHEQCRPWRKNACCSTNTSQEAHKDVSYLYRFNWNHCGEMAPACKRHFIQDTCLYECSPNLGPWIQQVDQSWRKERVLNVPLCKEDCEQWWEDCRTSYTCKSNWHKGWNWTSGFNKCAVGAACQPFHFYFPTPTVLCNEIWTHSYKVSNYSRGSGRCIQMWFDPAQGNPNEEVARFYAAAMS
Method: (§1) Cell culture: KB cells (a human nasopharyngeal epidermal carcinoma cell line) and JAR cells (a human choriocarcinoma cell line) were obtained from ATCC (American Type Culture Collection). Both cell lines are reported to overexpress transcripts encoding folate binding protein. […] The media for each cell line was supplemented with 10% defined fetal calf serum (HyClone, Inc.) Monolayers were cultured at 37° C. in a humidified atmosphere containing 5% CO2.
(§2) Forty-eight hours prior to each experiment, 5×10^5 cells were seeded into 35 mm culture dishes and allowed to grow for 2 days in folate-depleted media. The cells were then washed with Tris-buffered saline (TBS=150 mM NaCl, 50 mM Tris, pH 7.5) and 1 mL of fresh media containing 10 pmol ^153Gd-DO3A-APA-folate (α or γ isomer) and 0-900 pmol of cold native folate per sample was added. Control experiments were performed using 10 pmol of ^3H folate (Amersham International) and 0-900 pmol of cold native folate. The cells were incubated for 30 min at 37° C. They were then washed three times with ice cold TBS and suspended in one ml of water. Cell associated radioactivity was determined by gamma (^153Gd-folate) or scintillation counting (^3H-folate) of a 500 μl aliquot of this suspension; 100 μl was used in the BCA protein assay (Pierce catalog # 23225), which was used to determine and normalize for cellular protein content.

[2] = molecular target: T2, folate binding protein on the KB cells (Homo sapiens, UniProt P15328); test: Binding of ^3H-folate and alpha or gamma isomer of ^153Gd-DO3A-APA-folate to KB cells at 4° C. with and without excess folate; conditions: 30 min
T2 construct: host or cells: KB cells
T2 sequence (P15328 25-234): as above
Method: In a second experiment, the ability of the alpha and gamma isomers of ^153Gd-DO3A-APA-folate to bind to KB cells at 4° C. was studied. KB cells (˜5×10^5 cells/well) were seeded into 35-mm wells and incubated for 48 hours as described above. The cells were then cooled to 4° C. for 30 min and incubated with the following mixtures for 30 min at 4° C.: • 1. 10 pmol of ^3H-folate • 2. 10 pmol of ^3H-folate and 250 pmol of native folate • 3. 10 pmol of ^153Gd/Gd(DO3A-APA-α-folate) • 4. 10 pmol of ^153Gd/Gd(DO3A-APA-α-folate) and 250 pmol of native folate • 5. 10 pmol of ^153Gd/Gd(DO3A-APA-γ-folate) • 6. 10 pmol of ^153Gd/Gd(DO3A-APA-γ-folate) and 250 pmol of native folate
(§3) Following the incubation period, the cells were washed 3 times with ice-old Tris-buffered saline. The cells were then stripped from the plates using 1.0 mL of water. Aliquots of the water/cell mixture were assayed for the respective radioisotopes and for cellular protein (to determine the number of KB cells present in each well). The radioassay data were used to calculate the % of radiolabeled compound bound to the cells in the absence and presence of unlabeled native folate. Data in FIG. 2 are presented as the percentage bound, relative to the % bound in the control wells containing 10 pmol of ^3H-folate.

JAR cells [3] = molecular target: T3, JAR cells (Homo sapiens, UniProt P15328); test: Binding of ^153Gd-folates or ^3H folate to JAR cells at 37° C.
T3 construct: host or cells: JAR cells
T3 sequence (P15328 25-234): as above
Method: as §1, §2

JAR tumors = test: Biodistribution at MRI dose level in nude mice with subcutaneous JAR tumors; conditions: 60 min, 79.2 μmol/kg dose
Method: Biodistribution studies were performed using female nu/nu mice implanted with subcutaneous JAR tumors using the general procedures described in the example above. Animals were sacrificed 60 min post IV injection of an “MRI” dose level (0.1 mmol/kg) of ^153Gd/Gd-DO3A-APA-(α)-folate, ^153Gd/Gd-DO3A-APA-(γ)-folate or Bis(^153Gd/Gd-DO3A-APA)folate and selected organs were removed, weighed, and assayed for radioactivity, in order to determine the % injected dose/g-tissue (% ID/g) in the tumors.

[4] = molecular target: T2, folate binding protein on the KB cells; test: Binding of alpha and gamma isomers of ^99mTc-oxa-folate to KB cells at 4° C.; conditions: 30 min; for competition with native folate for folate binding protein on KB cells: plus 250-260 pmol cold native folate, 4° C. (FIG. 4, white bars); for binding to KB cells relative to that observed with 10 pmol of ^3H-folate: trace amounts (~0.5 μCi), 4° C., no cold folate (FIG. 4, dark bars)
Method: The ability of the alpha and gamma isomers of ^99mTc-oxa-folate to bind to KB cells was studied at 4° C. KB cells (˜5×10^5 cells/well) were seeded into 35-mm wells and incubated for 48 hours as described in example 17 above. The alpha and gamma isomers of ^99mTc-oxa-folate, were prepared and purified as described in examples 14 and 16. The cells were then cooled to 4° C. for 30 min and incubated with the following mixtures for 30 min at 4° C.: • 1. 10 pmol of ^3H-folate • 2. 10 pmol of ^3H-folate and 250 pmol of native folate • 3. […] Trace amounts (˜0.5 μCi) of ^99mTc-Oxa-γ-folate • 6. Trace amounts (˜0.5 μCi) of ^99mTc-Oxa-γ-folate and 260 pmol of native folate
as §3, with “ice-cold” for “ice-old”, “4” for “2”

cell surface FBP = cell surface FBP (Homo sapiens, UniProt P15328); conditions: in the presence of an equimolar amount of conjugate; cited from earlier work
cell surface FBP, sequence (P15328 25-234): as above

KB cells = test: In vitro exchange study with cold native folate in the medium, KB cells; type: cell-based, human; conditions: 24 hours, 37° C., medium with cold native folate (250 nM), FIG. 4A
Method: (§4) Exchange studies were performed to examine the effect of native folate on the radioactivity levels in KB or JAR cells that had been pre-loaded with a saturating level of radiolabeled Gd-folates or native folate in vitro. ^3H-folate, ^153Gd-DO3A-APA-(γ)-folate or ^153Gd-DO3A-APA-(α)-folate (250 pmol) was incubated with KB or JAR cells as described in Example 18. At the end of the 30-min incubation period, these ^153Gd-folate or ^3H-folate-loaded cells were washed five times with ice-cold media containing 250 nM cold, native folate and were then incubated at 37° C. for 24 hours with media that contained 250 pmol of cold folate. At predetermined intervals during this time, the incubation medium was removed and replaced with fresh medium at 37° C. The radioactivity present in each aliquot of the incubation medium was used to determine the rate at which radioactivity from the ^3H-folate, ^153Gd-DO3A-APA-(γ)-folate or ^153Gd-DO3A-APA-(α)-folate washed out of the cells. At the end of the study, the cells were suspended in one ml of water and assayed for radioactivity and protein content.

JAR cells [5] = molecular target: T3, JAR cells; test: In vitro exchange study with cold native folate in the medium, JAR cells; type: cell-based
Method: as §4

MA104 cells = conditions: cited from earlier work

^153Gd-DO3A-APA-(γ)-folate
amount bound to the KB cells [1]: No significant differences
competition with native folate for folate binding protein on KB cells ([2]; 10 pmol plus 250 pmol cold native folate, 4° C. (FIG. 2, white bars)): do compete for folate binding protein on the KB cells
binding to KB cells compared with 10 pmol of ^3H-folate ([2]; 10 pmol, 4° C., no cold folate (FIG. 2, dark bars)): to the same extent
ability to compete with cold native folate for binding to the JAR cells (JAR cells [3]; 10 pmol, 0-900 pmol cold folate, 30 min, 37° C.): equally effective
binding to JAR cells compared with the radiolabeled control (^3H-folate) (JAR cells [3]; comparable test conditions, FIG. 1A): about half as effective

Bis(^153Gd-DO3A-APA)-folate
Tumor % ID/g (JAR tumors): 1.48 (0.12) % ID/g
[Gd] in tumor tissue (JAR tumors; calculated from % ID/g): 55 (4) μM

99m-Technetium complex of 12-(N-Pteroyl-γ-L-glutamyl)-3,3,9,9-tetramethyl-5-oxa-4,8-diaza-2,10-dodecanedione dioxime [^99mTc-Oxa-γ-folate]
competition with native folate for folate binding protein on KB cells [4]: do compete for folate binding protein on the KB cells
binding to KB cells relative to that observed with 10 pmol of ^3H-folate [4]: to the same extent

CC(=O)N(O)CCCCCNC(=O)CCC(=O)N(O)CCCCCNC(=O)CCC(=O)N(O)CCCCCNC(=O)CCC(NC(=O)c1ccc(NCc2cnc3nc(N)[nH]c(=O)c3n2)cc1)C(=O)O (stereo not drawn) [DF-folate (γ) conjugate]
decrease in bound ^3H folic acid (cell surface FBP): 50%

CC(C)(C)OC(=O)NCCCC(CCCNC(=O)OC(C)(C)C)(CCCNC(=O)OC(C)(C)C)NC(=O)CCC(=O)NC(CCC(=O)OCc1ccccc1)(CCC(=O)OCc1ccccc1)CCC(=O)OCc1ccccc1 [Example 11, N-[1,5-Bis(benzyloxycarbonyl)-3-[2-(benzyloxycarbony)ethyl)]-3-pentyl]-N′-[1,7-bis-(t-butoxycarbony)amino-[4-(3-(t-butyloxycarbonyl)propyl]-4-heptyl]butanedioic diamide]
melting point: 95 to 96 °C

Gd-DO3A-APA-(γ)-folate
radioactivity lost from loaded KB cells to the incubation medium (KB cells): 20%
radioactivity from loaded JAR cells found in the medium (JAR cells [5]; after 6 hours, 37° C., medium with cold native folate, FIG. 4B): 30%
amount of compound washed from the JAR cells (JAR cells [5]; at 24 hours): similar

Nc1nc2ncc(CNc3ccc(C(=O)N[C@@H](CCC(=O)O)C(=O)O)cc3)nc2c(=O)[nH]1 [folic acid]
binding by MA104 cells (MA104 cells): 1-2 pmol folic acid/10^6 cells

99m-Technetium complex of 12-(N-Pteroyl-α-L-glutamyl)-3,3,9,9-tetramethyl-5-oxa-4,8-diaza-2,10-dodecanedione dioxime [^99mTc-Oxa-α-folate]
competition with native folate for folate binding protein on KB cells [4]: do compete for folate binding protein on the KB cells
binding to KB cells relative to that observed with 10 pmol of ^3H-folate [4]: 140%

CC(=O)N(O)CCCCCNC(=O)CCC(=O)N(O)CCCCCNC(=O)CCC(=O)N(O)CCCCCNC(=O)C(CCC(=O)O)NC(=O)c1ccc(NCc2cnc3nc(N)[nH]c(=O)c3n2)cc1 (single isomer, unassigned) [DF-folate (α) isomer]
decrease in bound ^3H folic acid (cell surface FBP): no ability to compete
